Experimental data published in the NIST ThermoML archive (doi:10.1016/j.jct.2005.05.003).

Conditions: Liquid, Vibrating tube method

CO [methanol]
Conditions | mass density [kg/m3]
298.26 K, 235 kPa | 785.98
298.26 K, 5000 kPa | 790.69
298.26 K, 9999 kPa | 795.4
298.26 K, 15013 kPa | 799.88
298.26 K, 19987 kPa | 804.1
298.26 K, 25008 kPa | 808.17
298.26 K, 29997 kPa | 812.04
298.26 K, 34991 kPa | 815.76
298.26 K, 39981 kPa | 819.34
323.22 K, 270 kPa | 762.14
323.22 K, 4990 kPa | 767.53
323.22 K, 9984 kPa | 772.87
323.22 K, 14982 kPa | 777.91
323.22 K, 19989 kPa | 782.69
323.22 K, 24986 kPa | 787.21
323.22 K, 29995 kPa | 791.53
323.22 K, 34987 kPa | 795.64
323.22 K, 39993 kPa | 799.6
348.25 K, 366 kPa | 737.29
348.25 K, 4987 kPa | 743.46
348.25 K, 9986 kPa | 749.65
348.25 K, 14991 kPa | 755.42
348.25 K, 20004 kPa | 760.84
348.25 K, 25020 kPa | 765.94
348.25 K, 30013 kPa | 770.76
348.25 K, 34989 kPa | 775.32
348.25 K, 40000 kPa | 779.7
373.26 K, 534 kPa | 710.55
373.26 K, 4983 kPa | 717.67
373.26 K, 9990 kPa | 724.99
373.26 K, 14998 kPa | 731.69
373.26 K, 19985 kPa | 737.88
373.26 K, 24994 kPa | 743.68
373.26 K, 29997 kPa | 749.13
373.26 K, 35001 kPa | 754.27
373.26 K, 39996 kPa | 759.14
398.28 K, 934 kPa | 680.93
398.28 K, 4984 kPa | 689
398.28 K, 9998 kPa | 697.91
398.28 K, 14986 kPa | 705.88
398.28 K, 19987 kPa | 713.16
398.28 K, 24992 kPa | 719.87
398.28 K, 29991 kPa | 726.11
398.28 K, 35005 kPa | 731.99
398.28 K, 40004 kPa | 737.47
